Legend:
[1] = tested on: lethal methylmalonic acid seizure model; test: In vivo test using survival rate as index, lethal methylmalonic acid seizure model; set-up: species or system C57BL/6J mice; settings: db-cAMP 10 μg/kg/dose subcutaneous
Description: An evaluation of administration of candidate drugs was carried out using the survival rate as an index, using a lethal methylmalonic acid seizure model.
1. A […] methylmalonic acid solution was intraperitoneally administered to eight-week old C57BL/6J mice at a dose of 20 ml/kg, and thus a lethal methylmalonic acid seizure model was produced.
2. After one day, after two days, and after three days from the administration of methylmalonic acid, subcutaneous administration of db-cAMP (10 μg/kg/dose) as a candidate drug was performed, and a comparison of the survival rates in an administered group and a non-administered group was carried out.

[2] = tested on: methylmalonic acidemia-derived NPCs; test: cAMP production ability test with Forskolin (intracellular cAMP ELISA); format: cell-based, human; settings: Forskolin 10 μmol/l, after 24 hours; compared with NPCs from normal iPS cells
Description: (3) On the occasion of performing measurement, a pretreatment of cells was carried out. Cells were detached from the culture plate, the number of cells was counted, and centrifugation was performed. After the centrifugation, the supernatant was suctioned, and the residue was suspended in a 0.1 M HCl solution at a concentration of 1×10^6/cells/mL. In the case of cells with a known cell count, a series of these operations was omitted, and 0.1 M HCl was introduced directly onto the culture plate while the cells were adhered. After suspending, the suspension was incubated at room temperature for 10 minutes and then was centrifuged at 600 g/5 minutes. […] (4) For the measurement, measurement was carried out through a series of the following processes. • A neutralizing liquid (Neutralizing reagent) was introduced in an amount of 50 μL into wells other than total activity (TA) and blanks. • Subsequently, 100 μL of a standard diluent was added to non-specific binding (NBS) and BO (0 pmol/mL standard). Furthermore, 50 μL of a standard diluent was added to the wells of NBS. […] The light absorbance at 405 nm was measured. […]

[3] = tested on: Adenylate cyclase; test: Adenylate cyclase inhibition by methylmalonic acid: cAMP concentration in B42NPCs; format: cell-based, human; settings: methylmalonic acid 50 μM or 100 μM in culture fluid, 24 hours
Description: cAMP is produced from ATP by Adenylate cyclase. From this point of view, an investigation was conducted on whether methylmalonic acid would inhibit Adenylate cyclase.

[4] = tested on: Adenylate cyclase, CREB, phosphorylated CREB; test: Protein expression analysis by Western Blotting in B42NPCs; format: cell-based, human; settings: presence or absence of methylmalonic acid
Description: 2. Meanwhile, the protein expression analysis shown in FIG. 6 was carried out based on the existing Western Blotting method.

Compound: CCCC(=O)Nc1ncnc2c1ncn2[C@@H]1O[C@@H]2COP(=O)(O)O[C@H]2[C@H]1OC(=O)CCC [db-cAMP, dibutyl-cAMP]
- vital prognosis based on seizure originating from methylmalonic acidemia [1]: markedly ameliorated
- survival rate after two days ([1]; non-administered group 14.7%, p<0.001): 75.0%
- survival rate one day after the administration of methylmalonic acid ([1]; non-administered group 35.3%): 85.0%

Compound: C=C[C@@]1(C)CC(=O)[C@]2(O)[C@@]3(C)[C@@H](O)CCC(C)(C)[C@@H]3[C@H](O)[C@H](OC(C)=O)[C@@]2(C)O1 [Forskolin, (3R,4aR,5S,6S,6aS,10S,10aR,10bS)-6,10,10b-trihydroxy-3,4a,7,7,10a-pentamethyl-1-oxo-3-vinyldodecahydro-1H-benzo[f]chromen-5-yl acetate]
- reactivity to Forskolin (intracellular cAMP concentration) [2]: decrease in reactivity to Forskolin was recognized

Compound: CC(C(=O)O)C(=O)O [methylmalonic acid]
- cAMP production power [3]: as the methylmalonic acid concentration in the culture fluid is higher, the cAMP production power is decreased
- total amounts of protein expression of Adenylate cyclase and CREB [4]: constant

Source: patent US11771678B2 (NATIONAL UNIVERSITY CORPORATION KUMAMOTO UNIVERSITY, priority 2016, dated 2023)
